The text below walks through data of paper PMC6662757, “A small molecule inhibitor of ER-to-cytosol protein dislocation exhibits anti-dengue and anti-Zika virus activity” (Scientific Reports, 2019).

The target in one experiment is T1, OS9 (Homo sapiens, UniProt Q13438).
T1 construct: endogenous protein in HeLa cells, heated in NP-40 lysate; component of the Hrd1 complex
T1 sequence (Q13438 26-667): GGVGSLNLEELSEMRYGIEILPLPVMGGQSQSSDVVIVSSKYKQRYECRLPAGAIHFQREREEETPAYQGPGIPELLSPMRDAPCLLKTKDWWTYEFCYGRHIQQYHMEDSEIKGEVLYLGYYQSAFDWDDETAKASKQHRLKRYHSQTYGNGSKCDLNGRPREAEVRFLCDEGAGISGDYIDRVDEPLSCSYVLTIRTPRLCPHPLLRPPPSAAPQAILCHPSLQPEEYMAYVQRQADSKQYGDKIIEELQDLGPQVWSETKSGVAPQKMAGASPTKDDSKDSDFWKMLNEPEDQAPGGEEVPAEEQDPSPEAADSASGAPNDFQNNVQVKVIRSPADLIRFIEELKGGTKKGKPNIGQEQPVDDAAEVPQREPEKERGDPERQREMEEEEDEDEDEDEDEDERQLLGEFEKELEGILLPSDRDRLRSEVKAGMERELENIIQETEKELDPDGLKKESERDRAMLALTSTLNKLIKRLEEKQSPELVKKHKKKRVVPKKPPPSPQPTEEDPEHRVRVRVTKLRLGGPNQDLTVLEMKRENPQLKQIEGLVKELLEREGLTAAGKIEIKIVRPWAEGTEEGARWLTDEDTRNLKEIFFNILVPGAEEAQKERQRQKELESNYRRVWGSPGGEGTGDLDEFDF
Nature of the experiment: cellular thermal shift assay (CETSA), immunoblot. As to conditions: HeLa cells treated with 10 µM CP26, 37 °C, 2 h, then lysed in 0.4% NP-40 and heated 3 min; direct target within the Hrd1 complex not defined. The format is cell-based. For orientation: Immunoblotting shows a protein as a band on a membrane.

Another experiment has as its target T2, Derlin2 (Homo sapiens, UniProt Q9GZP9).
T2 construct: gene DERL2; endogenous protein in HeLa cells, heated in NP-40 lysate; component of the Hrd1 complex
T2 sequence (Q9GZP9 1-239): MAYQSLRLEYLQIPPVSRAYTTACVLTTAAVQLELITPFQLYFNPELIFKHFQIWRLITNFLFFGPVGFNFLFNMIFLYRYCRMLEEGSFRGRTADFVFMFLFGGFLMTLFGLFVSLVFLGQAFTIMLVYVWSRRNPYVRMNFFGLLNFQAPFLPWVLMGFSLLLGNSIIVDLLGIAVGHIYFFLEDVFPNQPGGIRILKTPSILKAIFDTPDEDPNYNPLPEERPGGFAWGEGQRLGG
Put plainly: cellular thermal shift assay (CETSA), immunoblot. The experiment is classed as cell-based. As to conditions: HeLa cells treated with 10 µM CP26, 37 °C, 2 h, then lysed in 0.4% NP-40 and heated 3 min; direct target within the Hrd1 complex not defined.

Consider `Cc1ccc(C=C2C(Cl)=C(Cl)C(Cl)=C2Cl)cc1` [CP26, 1-methyl-4-[(2,3,4,5-tetrachlorocyclopenta-2,4-dien-1-ylidene)methyl]benzene], for which the thermal stability increase entry on OS9 was “CP26 selectively increased the thermal stability of Derlin2 and OS9”; at Derlin2 it was “CP26 selectively increased the thermal stability of Derlin2 and OS9”.
